Measurements reported in ChEMBL document CHEMBL1201862, “PubChem BioAssay data set” (2004).
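The compound was tested at five concentrations on cells cultured in 96-well plates, with a 48-hour exposure period. At the GI50, growth is halved.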 Calls of active or inactive are those of the source. No stated cut-off is given here; in the data, active = GI50 up to about 1.1 µM and inactive = higher.

What was measured:
Experiment in all cases: growth of human tumour cells (NCI), 48 h
NCI-H460 = test system: NCI-H460
M14 = test system: M14
EKVX = test system: EKVX
Hs-578T = test system: Hs-578T
Malme-3M = test system: Malme-3M
K562 = test system: K562
LOX IMVI = test system: LOX IMVI
CCRF-CEM = test system: CCRF-CEM
DU-145 = test system: DU-145
HL-60 = test system: HL-60
MDA-N = test system: MDA-N
NCI-H23 = test system: NCI-H23
SW-620 = test system: SW-620
SK-OV-3 = test system: SK-OV-3
CAKI-1 = test system: CAKI-1
HCT-15 = test system: HCT-15
HOP-62 = test system: HOP-62
HCC 2998 = test system: HCC 2998
PC-3 = test system: PC-3
T47D = test system: T47D
SK-MEL-2 = test system: SK-MEL-2
MCF7 = test system: MCF7
TK-10 = test system: TK-10
ACHN = test system: ACHN
A549 = test system: A549
HT-29 = test system: HT-29
RPMI-8226 = test system: RPMI-8226
NCI-H522 = test system: NCI-H522
KM12 = test system: KM12
OVCAR-5 = test system: OVCAR-5
NCI-H226 = test system: NCI-H226
NCI/ADR-RES = test system: NCI/ADR-RES
UACC-257 = test system: UACC-257
OVCAR-4 = test system: OVCAR-4
UO-31 = test system: UO-31
MDA-MB-231 = test system: MDA-MB-231
COLO 205 = test system: COLO 205
RXF 393 = test system: RXF 393
HOP-92 = test system: HOP-92
OVCAR-8 = test system: OVCAR-8
BT-549 = test system: BT-549
IGROV-1 = test system: IGROV-1
786-0 = test system: 786-0
MDA-MB-435 = test system: MDA-MB-435
SF-268 = test system: SF-268
UACC-62 = test system: UACC-62
SN12C = test system: SN12C
OVCAR-3 = test system: OVCAR-3
MOLT-4 = test system: MOLT-4
SF-295 = test system: SF-295
SNB-19 = test system: SNB-19
SK-MEL-5 = test system: SK-MEL-5
A498 = test system: A498
U-251 = test system: U-251
SK-MEL-28 = test system: SK-MEL-28
HCT-116 = test system: HCT-116

CN1C/C(=C\c2cccs2)C2=NN(C)C(c3cccs3)C2C1 (stereo unspecified)
GI50 (NCI-H460): 86.5 µM (inactive)
GI50 (M14): 97.7 µM (inactive)
GI50 (EKVX): > 100 µM (inactive)
GI50 (Hs-578T): > 100 µM (inactive)
GI50 (Malme-3M): > 100 µM (inactive)
GI50 (K562): 29.3 µM (inactive)
GI50 (LOX IMVI): > 100 µM (inactive)
GI50 (CCRF-CEM): 72.8 µM (inactive)
GI50 (DU-145): > 100 µM (inactive)
GI50 (HL-60): 3.05 µM (inactive)
GI50 (MDA-N): > 100 µM (inactive)
GI50 (NCI-H23): > 100 µM (inactive)
GI50 (SW-620): > 100 µM (inactive)
GI50 (SK-OV-3): > 100 µM (inactive)
GI50 (CAKI-1): > 100 µM (inactive)
GI50 (HCT-15): > 100 µM
GI50 (HOP-62): > 100 µM (inactive)
GI50 (HCC 2998): 42.1 µM (inactive)
GI50 (PC-3): 19 µM (inactive)
GI50 (T47D): 44.4 µM (inactive)
GI50 (SK-MEL-2): 24 µM (inactive)
GI50 (MCF7): 75.5 µM (inactive)
GI50 (TK-10): > 100 µM (inactive)
GI50 (ACHN): > 100 µM (inactive)
GI50 (A549): 89.3 µM (inactive)
GI50 (HT-29): 61.1 µM (inactive)
GI50 (RPMI-8226): 24.8 µM (inactive)
GI50 (NCI-H522): 81.3 µM (inactive)
GI50 (KM12): > 100 µM (inactive)
GI50 (OVCAR-5): > 100 µM (inactive)
GI50 (NCI-H226): > 100 µM (inactive)
GI50 (NCI/ADR-RES): > 100 µM (inactive)
GI50 (UACC-257): > 100 µM (inactive)
GI50 (OVCAR-4): 35.8 µM (inactive)
GI50 (UO-31): 75.7 µM (inactive)
GI50 (MDA-MB-231): 67.9 µM (inactive)
GI50 (COLO 205): > 100 µM (inactive)
GI50 (RXF 393): > 100 µM (inactive)
GI50 (HOP-92): 20.5 µM (inactive)
GI50 (OVCAR-8): > 100 µM (inactive)
GI50 (BT-549): > 100 µM (inactive)
GI50 (IGROV-1): 32.4 µM (inactive)
GI50 (786-0): > 100 µM (inactive)
GI50 (MDA-MB-435): > 100 µM (inactive)
GI50 (SF-268): > 100 µM (inactive)
GI50 (UACC-62): > 100 µM (inactive)
GI50 (SN12C): 95.7 µM (inactive)
GI50 (OVCAR-3): 77.8 µM (inactive)
GI50 (MOLT-4): 28.8 µM (inactive)
GI50 (SF-295): > 100 µM (inactive)
GI50 (SNB-19): > 100 µM (inactive)
GI50 (SK-MEL-5): 58.3 µM (inactive)
GI50 (A498): 46.7 µM (inactive)
GI50 (U-251): 22.8 µM (inactive)
GI50 (SK-MEL-28): > 100 µM (inactive)
GI50 (HCT-116): 51.4 µM (inactive)
